The source made the active and inactive calls. No cut-off for these calls is given here.
Assays:
[1] = Inhibition of recombinant AUR1 (unknown origin); parameters: species or system Homo sapiens
[2] = molecular target: Mitotic checkpoint serine/threonine-protein kinase BUB1 (Homo sapiens, UniProt O43683); experiment: Inhibition of recombinant BUB1 (unknown origin)
[3] = molecular target: Mitogen-activated protein kinase 1 (Homo sapiens, UniProt P28482); experiment: Inhibition of recombinant ERK2 (unknown origin)
Mitogen-activated protein kinase 1, sequence (P28482 whole entry): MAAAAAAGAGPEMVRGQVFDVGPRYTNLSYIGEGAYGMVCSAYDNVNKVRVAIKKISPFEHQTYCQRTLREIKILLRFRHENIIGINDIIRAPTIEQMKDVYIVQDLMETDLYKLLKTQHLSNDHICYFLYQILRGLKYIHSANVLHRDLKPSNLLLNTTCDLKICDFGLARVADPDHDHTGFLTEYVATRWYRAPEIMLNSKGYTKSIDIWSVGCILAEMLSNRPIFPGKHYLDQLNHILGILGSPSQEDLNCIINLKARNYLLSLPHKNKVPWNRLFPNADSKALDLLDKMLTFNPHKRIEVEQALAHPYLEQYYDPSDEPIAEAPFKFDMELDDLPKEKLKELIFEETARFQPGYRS

[4] = molecular target: Inhibitor of nuclear factor kappa-B kinase subunit beta (Homo sapiens, UniProt O14920); experiment: Inhibition of recombinant IKK2 (unknown origin)
Insulin receptor = Insulin receptor (Homo sapiens, UniProt P06213); experiment: Inhibition of recombinant IR (unknown origin)
Insulin receptor, sequence (P06213 28-758 limits assumed): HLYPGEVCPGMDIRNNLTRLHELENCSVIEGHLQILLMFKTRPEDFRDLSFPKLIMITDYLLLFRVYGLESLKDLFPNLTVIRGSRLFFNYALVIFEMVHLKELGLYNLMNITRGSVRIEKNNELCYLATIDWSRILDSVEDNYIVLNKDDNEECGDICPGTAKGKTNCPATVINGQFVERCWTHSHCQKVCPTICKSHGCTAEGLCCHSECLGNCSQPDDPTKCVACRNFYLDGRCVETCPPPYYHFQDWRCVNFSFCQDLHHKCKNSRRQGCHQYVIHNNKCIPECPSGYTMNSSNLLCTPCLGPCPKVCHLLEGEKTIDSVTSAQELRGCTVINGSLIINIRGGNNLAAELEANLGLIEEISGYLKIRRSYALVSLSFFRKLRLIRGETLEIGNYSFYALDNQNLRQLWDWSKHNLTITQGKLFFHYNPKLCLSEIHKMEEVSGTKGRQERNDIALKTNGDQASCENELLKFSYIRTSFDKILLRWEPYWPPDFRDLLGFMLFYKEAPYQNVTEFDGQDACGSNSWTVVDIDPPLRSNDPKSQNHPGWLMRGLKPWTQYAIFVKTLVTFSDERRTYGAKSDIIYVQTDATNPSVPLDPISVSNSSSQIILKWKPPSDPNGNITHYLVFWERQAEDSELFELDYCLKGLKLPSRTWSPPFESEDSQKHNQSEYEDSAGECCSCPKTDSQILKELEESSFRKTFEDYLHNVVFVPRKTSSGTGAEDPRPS
Insulin receptor, sequence (P06213 763-1382 limits assumed): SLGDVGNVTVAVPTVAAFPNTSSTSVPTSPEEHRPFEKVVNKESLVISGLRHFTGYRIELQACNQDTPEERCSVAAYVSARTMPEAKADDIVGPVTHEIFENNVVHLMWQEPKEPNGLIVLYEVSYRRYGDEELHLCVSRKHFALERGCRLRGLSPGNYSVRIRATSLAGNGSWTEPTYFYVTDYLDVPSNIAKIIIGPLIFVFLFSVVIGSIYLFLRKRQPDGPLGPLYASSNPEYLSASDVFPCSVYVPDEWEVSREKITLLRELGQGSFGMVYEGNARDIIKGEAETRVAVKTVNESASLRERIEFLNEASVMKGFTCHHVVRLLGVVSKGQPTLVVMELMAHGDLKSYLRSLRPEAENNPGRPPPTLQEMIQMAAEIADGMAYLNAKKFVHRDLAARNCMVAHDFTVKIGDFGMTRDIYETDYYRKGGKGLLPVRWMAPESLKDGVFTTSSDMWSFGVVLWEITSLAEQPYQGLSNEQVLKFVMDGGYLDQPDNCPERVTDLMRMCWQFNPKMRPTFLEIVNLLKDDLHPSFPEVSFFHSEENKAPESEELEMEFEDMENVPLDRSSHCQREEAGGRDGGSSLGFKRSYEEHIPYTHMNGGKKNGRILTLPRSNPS

[5] = molecular target: Mast/stem cell growth factor receptor Kit (Homo sapiens, UniProt P10721); experiment: Inhibition of recombinant KIT (unknown origin)
[6] = molecular target: Tyrosine-protein kinase Lyn (Homo sapiens, UniProt P07948); experiment: Inhibition of recombinant LYN (unknown origin)
Tyrosine-protein kinase Lyn, sequence (P07948 whole entry): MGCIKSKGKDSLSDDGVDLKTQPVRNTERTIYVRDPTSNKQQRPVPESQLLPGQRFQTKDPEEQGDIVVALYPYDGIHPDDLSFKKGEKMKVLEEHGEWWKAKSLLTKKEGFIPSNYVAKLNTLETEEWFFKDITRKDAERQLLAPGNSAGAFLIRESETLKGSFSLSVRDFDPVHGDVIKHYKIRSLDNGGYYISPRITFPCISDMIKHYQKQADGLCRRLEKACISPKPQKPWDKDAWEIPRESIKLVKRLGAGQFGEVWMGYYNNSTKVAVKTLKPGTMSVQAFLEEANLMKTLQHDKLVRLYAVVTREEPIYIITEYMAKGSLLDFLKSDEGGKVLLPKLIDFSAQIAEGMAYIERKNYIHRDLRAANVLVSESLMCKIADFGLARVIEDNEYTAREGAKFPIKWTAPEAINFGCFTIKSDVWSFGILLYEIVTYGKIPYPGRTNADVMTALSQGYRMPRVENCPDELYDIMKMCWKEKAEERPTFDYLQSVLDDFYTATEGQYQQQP

[7] = molecular target: MAP kinase-activated protein kinase 2 (Homo sapiens, UniProt P49137); experiment: Inhibition of recombinant MAPKAPK2 (unknown origin)
[8] = molecular target: T1, Maternal embryonic leucine zipper kinase (Homo sapiens, UniProt Q14680); experiment: Inhibition of recombinant MELK (unknown origin)
T1 sequence (Q14680 whole entry): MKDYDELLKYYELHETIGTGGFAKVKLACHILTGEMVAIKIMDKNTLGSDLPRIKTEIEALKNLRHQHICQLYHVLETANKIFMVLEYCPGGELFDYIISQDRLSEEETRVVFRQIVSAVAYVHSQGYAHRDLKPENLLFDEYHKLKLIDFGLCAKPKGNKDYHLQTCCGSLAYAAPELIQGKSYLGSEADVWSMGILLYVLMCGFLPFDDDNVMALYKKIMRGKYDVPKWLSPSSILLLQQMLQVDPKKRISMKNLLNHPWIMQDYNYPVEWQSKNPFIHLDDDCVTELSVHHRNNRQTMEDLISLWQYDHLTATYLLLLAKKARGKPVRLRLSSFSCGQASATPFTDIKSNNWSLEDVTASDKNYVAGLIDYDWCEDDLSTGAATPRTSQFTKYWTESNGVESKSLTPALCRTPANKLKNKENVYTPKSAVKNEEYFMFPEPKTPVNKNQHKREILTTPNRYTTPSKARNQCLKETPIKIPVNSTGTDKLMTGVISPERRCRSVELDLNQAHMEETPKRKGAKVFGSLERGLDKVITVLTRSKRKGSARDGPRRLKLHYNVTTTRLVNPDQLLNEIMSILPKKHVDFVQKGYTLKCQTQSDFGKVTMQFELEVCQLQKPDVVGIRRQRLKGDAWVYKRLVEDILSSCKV

[9] = molecular target: Serine/threonine-protein kinase pim-1 (Homo sapiens, UniProt P11309); experiment: Inhibition of recombinant PIM1 (unknown origin)
Serine/threonine-protein kinase pim-1, sequence (P11309 whole entry): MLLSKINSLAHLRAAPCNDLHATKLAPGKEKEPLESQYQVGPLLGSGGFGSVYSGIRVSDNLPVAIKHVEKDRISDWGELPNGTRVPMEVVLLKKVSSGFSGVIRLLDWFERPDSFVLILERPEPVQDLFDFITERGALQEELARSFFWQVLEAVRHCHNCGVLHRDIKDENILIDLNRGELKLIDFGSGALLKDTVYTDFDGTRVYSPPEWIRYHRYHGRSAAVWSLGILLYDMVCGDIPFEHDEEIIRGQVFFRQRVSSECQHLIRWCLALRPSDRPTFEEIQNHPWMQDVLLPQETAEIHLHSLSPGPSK

[10] = molecular target: Serine/threonine-protein kinase PLK1 (Homo sapiens, UniProt P53350); experiment: Inhibition of recombinant PLK1 (unknown origin)
Serine/threonine-protein kinase PLK1, sequence (P53350 whole entry): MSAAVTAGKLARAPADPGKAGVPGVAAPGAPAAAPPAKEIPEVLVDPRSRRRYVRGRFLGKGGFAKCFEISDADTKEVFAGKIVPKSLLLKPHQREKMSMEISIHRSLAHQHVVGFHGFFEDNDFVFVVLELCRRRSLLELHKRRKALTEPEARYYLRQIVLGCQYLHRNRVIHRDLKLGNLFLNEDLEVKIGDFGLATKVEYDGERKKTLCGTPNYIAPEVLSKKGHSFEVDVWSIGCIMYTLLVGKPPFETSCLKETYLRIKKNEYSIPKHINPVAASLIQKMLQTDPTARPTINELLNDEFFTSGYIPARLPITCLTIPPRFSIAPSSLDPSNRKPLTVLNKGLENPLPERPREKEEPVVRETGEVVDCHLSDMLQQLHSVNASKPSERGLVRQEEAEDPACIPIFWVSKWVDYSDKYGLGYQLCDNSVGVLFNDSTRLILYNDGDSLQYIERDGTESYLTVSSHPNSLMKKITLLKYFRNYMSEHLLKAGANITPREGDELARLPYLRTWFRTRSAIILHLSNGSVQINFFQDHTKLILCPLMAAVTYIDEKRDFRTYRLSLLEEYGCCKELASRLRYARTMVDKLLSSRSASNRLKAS

[11] = molecular target: Non-receptor tyrosine-protein kinase TYK2 (Homo sapiens, UniProt P29597); experiment: Inhibition of recombinant TYK 2 (unknown origin)
HT1197 = experiment: Antiproliferative activity against human HT1197 cells assessed as inhibition of cell growth incubated for 72 hrs by celltiter-glo assay; assay type: functional, cell-based; details: HT1197, 72 h
BT-549 = experiment: Antiproliferative activity against human BT-549 cells assessed as inhibition of cell growth incubated for 72 hrs by celltiter-glo assay; assay type: functional, cell-based; details: BT-549, 72 h
SW-620 = experiment: Antiproliferative activity against human SW620 cells assessed as inhibition of cell growth incubated for 72 hrs by celltiter-glo assay; assay type: functional, cell-based; details: SW-620, 72 h
SW48 = experiment: Antiproliferative activity against human SW48 cells assessed as inhibition of cell growth incubated for 72 hrs by celltiter-glo assay; assay type: functional, cell-based; details: SW48, 72 h
[12] = Antiproliferative activity against human COLO 206F cells assessed as inhibition of cell growth incubated for 72 hrs by celltiter-glo assay; assay type: functional, cell-based
HCC 2998 = experiment: Antiproliferative activity against human HCC 2998 cells assessed as inhibition of cell growth incubated for 72 hrs by celltiter-glo assay; assay type: functional, cell-based; details: HCC 2998, 72 h
HT-29 = experiment: Antiproliferative activity against human HT-29 cells assessed as inhibition of cell growth incubated for 72 hrs by celltiter-glo assay; assay type: functional, cell-based; details: HT-29, 72 h
HL-60 = experiment: Antiproliferative activity against human HL-60 cells assessed as inhibition of cell growth incubated for 72 hrs by celltiter-glo assay; assay type: functional, cell-based; details: HL-60, 72 h
HEL = experiment: Antiproliferative activity against human HEL cells assessed as inhibition of cell growth incubated for 72 hrs by celltiter-glo assay; assay type: functional, cell-based
SET-2 = experiment: Antiproliferative activity against human SET2 cells assessed as inhibition of cell growth incubated for 72 hrs by celltiter-glo assay; assay type: functional, cell-based; details: SET-2, 72 h
NCI-H460 = experiment: Antiproliferative activity against human NCI-H460 cells assessed as inhibition of cell growth incubated for 72 hrs by celltiter-glo assay; assay type: functional, cell-based; details: NCI-H460, 72 h
NCI-H146 = experiment: Antiproliferative activity against human NCI-H146 cells assessed as inhibition of cell growth incubated for 72 hrs by celltiter-glo assay; assay type: functional, cell-based; details: NCI-H146, 72 h
NCI-H1975 = experiment: Antiproliferative activity against human NCI-H1975 cells assessed as inhibition of cell growth incubated for 72 hrs by celltiter-glo assay; assay type: functional, cell-based; details: NCI-H1975, 72 h
SU-DHL-8 = experiment: Antiproliferative activity against human SU-DHL-8 cells assessed as inhibition of cell growth incubated for 72 hrs by celltiter-glo assay; assay type: functional, cell-based; details: SU-DHL-8, 72 h
SR = experiment: Antiproliferative activity against human SR cells assessed as inhibition of cell growth incubated for 72 hrs by celltiter-glo assay; assay type: functional, cell-based
[13] = Antiproliferative activity against human DERL-7 cells assessed as inhibition of cell growth incubated for 72 hrs by celltiter-glo assay; assay type: functional, cell-based; details: DERL7, 72 h
SK-MEL-28 = experiment: Antiproliferative activity against human SK-MEL-28 cells assessed as inhibition of cell growth incubated for 72 hrs by celltiter-glo assay; assay type: functional, cell-based; details: SK-MEL-28, 72 h
UACC-62 = experiment: Antiproliferative activity against human UACC-62 cells assessed as inhibition of cell growth incubated for 72 hrs by celltiter-glo assay; assay type: functional, cell-based; details: UACC-62, 72 h
DU-145 = experiment: Antiproliferative activity against human DU-145 cells assessed as inhibition of cell growth incubated for 72 hrs by celltiter-glo assay; assay type: functional, cell-based; details: DU-145, 72 h
[14] = molecular target: T1, Maternal embryonic leucine zipper kinase; experiment: Inhibition of recombinant MELK (unknown origin) preincubated for 60 mins
U2OS [15] = experiment: Induction of mitotic arrest in human U2OS cells expressing YFP-alpha-tubulin assessed as reduction in mitotic cells at 1 micromol/L by time-lapse microscopic analysis; assay type: functional, cell-based; details: dose 1.0 µmol/L
U2OS [16] = experiment: Induction of mitotic arrest in human U2OS cells expressing YFP-alpha-tubulin assessed as mitotic index at 1 micromol/L in presence of MG132 by time-lapse microscopic analysis; assay type: functional, cell-based; details: dose 1.0 µmol/L
HeLa [17] = experiment: Induction of mitotic arrest in human nocodazole-arrested HeLa cells assessed as delocalization of BUB3 at 1 micromol/L in presence of MG132; assay type: functional, cell-based; details: dose 1.0 µmol/L
HeLa [18] = experiment: Induction of mitotic arrest in human nocodazole-arrested HeLa cells assessed as delocalization of borealin at 1 micromol/L in presence of MG132; assay type: functional, cell-based; details: dose 1.0 µmol/L
A2780 = experiment: Cell cycle arrest in human A2780 cells assessed as accumulation of cells at G2/M phase at 0.2 to 1 micromol/L incubated for 24 hrs by FACS/PI staining based flow cytometric analysis; assay type: functional; details: dose 0.2-1 µmol/L
HCT-116 = experiment: Cell cycle arrest in human HCT-116 cells assessed as accumulation of cells at G1 phase at 0.2 to 1 micromol/L incubated for 48 hrs by FACS/PI staining based flow cytometric analysis; assay type: functional; details: dose 0.2-1 µmol/L
[19] = Half life in Athymic nu-nu mouse at 100 mg/kg, po measured upto 24 hrs by LC-MS/MS analysis; assay type: ADME, organism-based; details: in vivo
[20] = AUC in Athymic nu-nu mouse at 10 mg/kg, iv measured upto 24 hrs by LC-MS/MS analysis; assay type: ADME, organism-based; details: in vivo
[21] = Oral bioavailability in Athymic nu-nu mouse at 10 mg/kg measured upto 24 hrs by LC-MS/MS analysis; assay type: ADME, organism-based; details: in vivo
[22] = Oral bioavailability in Athymic nu-nu mouse at 100 mg/kg measured upto 24 hrs by LC-MS/MS analysis; assay type: ADME, organism-based; details: in vivo
[23] = molecular target: Tyrosine-protein kinase SYK (Homo sapiens, UniProt P43405)
Description: Inhibition of recombinant SYK (unknown origin)

Mitotic checkpoint serine/threonine-protein kinase BUB1, sequence (O43683 whole entry): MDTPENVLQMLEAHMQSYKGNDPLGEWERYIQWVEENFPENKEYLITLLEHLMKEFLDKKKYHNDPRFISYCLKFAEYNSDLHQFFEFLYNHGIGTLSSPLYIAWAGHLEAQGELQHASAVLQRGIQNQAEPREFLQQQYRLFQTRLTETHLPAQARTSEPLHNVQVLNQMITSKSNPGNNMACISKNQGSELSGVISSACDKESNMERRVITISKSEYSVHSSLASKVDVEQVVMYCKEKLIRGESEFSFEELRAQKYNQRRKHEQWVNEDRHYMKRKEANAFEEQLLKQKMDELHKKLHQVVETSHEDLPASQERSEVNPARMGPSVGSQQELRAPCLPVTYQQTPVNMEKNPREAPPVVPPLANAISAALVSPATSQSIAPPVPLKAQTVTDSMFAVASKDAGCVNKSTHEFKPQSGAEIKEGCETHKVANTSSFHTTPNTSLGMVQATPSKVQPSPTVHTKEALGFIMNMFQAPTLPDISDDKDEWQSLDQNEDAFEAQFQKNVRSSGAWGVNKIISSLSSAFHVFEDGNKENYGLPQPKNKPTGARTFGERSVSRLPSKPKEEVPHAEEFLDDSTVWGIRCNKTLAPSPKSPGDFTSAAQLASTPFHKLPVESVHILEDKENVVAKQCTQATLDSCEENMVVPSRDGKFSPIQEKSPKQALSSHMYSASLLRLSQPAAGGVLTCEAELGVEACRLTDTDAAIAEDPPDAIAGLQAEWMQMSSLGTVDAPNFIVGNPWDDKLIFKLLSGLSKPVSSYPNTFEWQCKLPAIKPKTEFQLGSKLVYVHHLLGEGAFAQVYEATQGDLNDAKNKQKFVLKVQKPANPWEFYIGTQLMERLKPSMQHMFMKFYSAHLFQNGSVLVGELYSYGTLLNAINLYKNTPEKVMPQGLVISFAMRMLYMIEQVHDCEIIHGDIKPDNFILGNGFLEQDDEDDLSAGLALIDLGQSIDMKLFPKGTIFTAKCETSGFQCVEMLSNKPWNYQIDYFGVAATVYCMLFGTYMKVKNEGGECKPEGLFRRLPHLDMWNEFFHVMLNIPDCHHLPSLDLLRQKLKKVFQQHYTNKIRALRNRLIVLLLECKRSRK

CCc1cccc(CC)c1NC(=O)c1nn(C)c2c1CCc1cnc(Nc3ccc(C(=O)NC4CCN(C)CC4)cc3OC(F)(F)F)nc1-2
IC50 [1]: > 10 µM | IC50 [2]: > 10 µM | IC50 [3]: > 10 µM | IC50 [4]: > 10 µM | IC50 (Insulin receptor): > 10 µM | IC50 [5]: > 10 µM | IC50 [6]: > 10 µM | IC50 [7]: > 10 µM | IC50 [8]: 6.01 µM | IC50 [9]: > 10 µM | IC50 [10]: > 10 µM | IC50 [11]: > 10 µM | IC50 (HT1197): 8.3 µM | IC50 (BT-549): 1.05 µM | IC50 (SW-620): 0.472 µM | IC50 (SW48): 0.551 µM | IC50 [12]: 1.24 µM | IC50 (HCC 2998): 1.81 µM | IC50 (HT-29): 3.92 µM | IC50 (HL-60): 1.58 µM | IC50 (HEL): 5.49 µM | IC50 (SET-2): 10 µM | IC50 (NCI-H460): 2.19 µM | IC50 (NCI-H146): 4.28 µM | IC50 (NCI-H1975): 10 µM | IC50 (SU-DHL-8): 0.829 µM | IC50 (SR): 6.96 µM | IC50 [13]: 8.56 µM | IC50 (SK-MEL-28): 2.59 µM | IC50 (UACC-62): 4.75 µM | IC50 (DU-145): 1.93 µM | IC50 [14]: < 10 µM | Activity (U2OS [15]): Active | Activity (U2OS [16]): inactive | Activity (HeLa [17]): Active | Activity (HeLa [18]): Active | Activity (A2780): Active | Activity (HCT-116): Active | half-life [19]: 16.8 h | AUC at 24 h [20]: 22.4 µM·h | bioavailability [21]: 37.9% | bioavailability [22]: 22.6% | IC50 [23]: > 10 µM

Reference: ChEMBL document CHEMBL5705893, “Targeting the mitotic checkpoint for cancer therapy with NMS-P715, an inhibitor of MPS1 kinase” (Cancer Res, 2010)
